Assay [1] deals with A2 (MLH1−ve, MMR deficient). As to the kind of experiment: Modified MTT assay, A2 line (A2780/cp70 + chromosome 3, MLH1 -ve). The class given is cell-based, human. Conditions: for IC50: Homo sapiens, A2780/CP70, A2 line. On the procedure:
(§1) Relative drug sensitivities (Resistance Factor) and IC50 values were determined by a modified MTT assay (see, e.g., Mosmann, 1983; Plumb et al., 1989), as described below: • (1) Trypsinise a sub-confluent monolayer culture and collect cells in growth medium containing serum. Centrifuge the suspension (200 g, 5 minutes) to pellet cells, re-suspend in growth medium, and count cells. Dilute cells to a density of 5×10^3 cells/mL allowing 60 mL of cell suspension for 3 microtitre plates. Transfer cell suspension to a 10 cm petri dish, and with a multichannel pipette add 200 μL to each well of the central 10 columns of a flat bottomed 96-well plate (80 wells per plate) starting with column 2 and ending with column 11. Add 200 μL of growth medium to the 8 wells in columns 1 and 12. Put the plates in a plastic box and incubate in a humidified atmosphere at 37° C. for 2-3 days so that cells are in the exponential phase of growth for drug addition. • (2) Prepare a serial 5-fold dilution of the cytotoxic drug in growth medium to give 8 concentrations. Pipette 6 mL of growth medium in to each of 7 universal containers (30 mL). Prepare 10 mL of the highest concentration of the drug and transfer 1.5 mL of this solution to the first universal container. Mix and then transfer 1.5 mL to the next universal container. Continue until the seventh universal container is reached. The concentrations should be chosen so that the highest concentration kills most of the cells and the lowest kills none of the cells. Normally, three plates are used for each drug to give triplicate determinations within one experiment. • (3) The medium is removed from all the wells in columns 2 to 11. This can be achieved with a hypodermic needle attached to a suction line. Cells in the 8 wells in columns 2 and 11 are fed with 200 μL of fresh growth medium. The drug solutions are transferred to 10 cm petri dishes and 200 μL added to all 8 wells of a column. For ease of analysis arrange the drug solutions in order so that the highest is in column 3 down to the lowest in column 10. Plates are returned to the plastic box and incubated for 24 hours. • (4) At the end of the drug exposure period, the medium is removed from all wells containing cells and the cells are fed with 200 μL of fresh medium. • (5) The plates are fed daily for two more days. • (6) The plates are fed with 200 μL of fresh medium and 50 μL of the MTT solution (5 mg/mL in PBS) is added to all wells in columns 1 to 11. Plates are wrapped in aluminium foil and incubated for 4 hours in a humidified atmosphere at 37° C. • (7) The medium and MTT are then removed from the wells and the purple MTT-formazan crystals dissolved by addition of 200 μL of DMSO to all wells in columns 1 to 11. Glycine buffer is added (25 μL per well) to all wells containing DMSO. • (8) Absorbance is recorded at 570 nm with the wells in column 1, which contained medium and MTT but no cells used as a blank. • (9) A graph is plotted of absorbance (y-axis) against drug concentration (x-axis). The mean absorbance reading from the wells in columns 2 and 11 is used as the control absorbance and the IC50 concentration is determined as the drug concentration required to reduce the absorbance to half that of the control. IC10 or IC90 values can be determined in the same manner.
(§2) A1, E1, and A2 are derived by transfer of human chromosome 3 into A2780/cp70. MLH1 is located on chromosome 3.
(§3) IC50 values (μM) for A1 (MLH1+ve, MMR proficient) or E1 (MLH1+ve, MMR proficient) and A2 (MLH1−ve, MMR deficient) lines and Resistance Factors (RF) (the fold difference in resistance between the A2 line, MMR deficient, and the A1 line, MMR proficient) were determined based on the MTT assay described above for several compounds of the present invention (including, e.g., MMR201). Compounds showing increased activity against the MLH1 deficient A2 line compared to the MLH1 proficient A1 or E1 line have RF values less than 1.

The test system of a further assay is A2780/mcp1. Briefly: Modified MTT assay, A2780/mcp1 (cisplatin resistant, MMR deficient). The note with it: 24 hour drug exposure; for IC50: Homo sapiens, A2780/mcp1, MTT; for A2780/mcp1 RF (Resistance Factor): fold difference in resistance from parental A2780. The class given is cell-based, human. The method, then:
as §1
(§4) A2780/cp70 and A2780/mcp1 have lost expression of MLH1, have lost MMR activity, and have microsatellite instability compared to A2780. The CpG island at the MLH1 gene is methylated in A2780/cp70 and A2780/mcp1, but not A2780.
(§5) IC50 values (μM) for A2780, A2780/cp70, and A2780/mcp1 and Resistance Factors (RF) (the fold difference in resistance from parental A2780) were determined based on the MTT assay described above for several compounds of the present invention (including, e.g., MMR201).

Another assay relates to A2780/cp70. As to the kind of experiment: Modified MTT assay, A2780/cp70 (cisplatin resistant, MMR deficient). The class given is cell-based, human. Conditions: 24 hour drug exposure; for IC50: Homo sapiens, A2780/CP70, MTT; for A2780/cp70 RF (Resistance Factor): fold difference in resistance from parental A2780. On the procedure: as §1, §4, §5
The subject of another assay is A2780. Briefly: Modified MTT assay, A2780 (parental, MMR proficient). The class given is cell-based, human. The note with it: Homo sapiens, A2780, 24 hour drug exposure. The method, then:
as §1, §4, §5

For assay [2], the system named is A1 (MLH1+ve, MMR proficient). As to the kind of experiment: Modified MTT assay, A1 line (A2780/cp70 + chromosome 3, MLH1 +ve). The class given is cell-based, human. Conditions: Homo sapiens, A2780/CP70, read-out: A1 or E1 MLH1 +ve MMR proficient IC50. On the procedure:
as §1, §2, §3

In assay [3] the test system is E1 (MLH1+ve, MMR proficient). Briefly: Modified MTT assay, E1 line (A2780/cp70 + chromosome 3, MLH1 +ve). The note with it: Homo sapiens, read-out: A1 or E1 MLH1 +ve MMR proficient IC50. The class given is cell-based. On the procedure:
Relative drug sensitivities (Resistance Factor) and IC50 values were determined by a modified MTT assay (see, e.g., Mosmann, 1983; Plumb et al., 1989), as described below: • (1) Trypsinise a sub-confluent monolayer culture and collect cells in growth medium containing serum. Centrifuge the suspension (200 g, 5 minutes) to pellet cells, re-suspend in growth medium, and count cells. Dilute cells to a density of 5×10^3 cells/mL allowing 60 mL of cell suspension for 3 microtitre plates. Transfer cell suspension to a 10 cm petri dish, and with a multichannel pipette add 200 μL to each well of the central 10 columns of a flat bottomed 96-well plate (80 wells per plate) starting with column 2 and ending with column 11. Add 200 μL of growth medium to the 8 wells in columns 1 and 12. […] Glycine buffer is added (25 μL per well) to all wells containing DMSO. • (8) Absorbance is recorded at 570 nm with the wells in column 1, which contained medium and MTT but no cells used as a blank. • (9) A graph is plotted of absorbance (y-axis) against drug concentration (x-axis). The mean absorbance reading from the wells in columns 2 and 11 is used as the control absorbance and the IC50 concentration is determined as the drug concentration required to reduce the absorbance to half that of the control. IC10 or IC90 values can be determined in the same manner. […]

[4] abbreviates: fold difference in resistance between A2 (MMR deficient) and A1 (MMR proficient).

Consider six molecules from patent US20090247579A1, “2-[3H-THIAZOL-2-YLIDINEMETHYL]PYRIDINES AND RELATED COMPOUNDS AND THEIR USE” (CANCER RESEARCH TECHNOLOGY LIMITED, priority 2006, published 2009).

Take `CC[n+]1ccccc1/C=C1\SC=C(C)N1C.[I-]` [MMR304]: the IC50 in assay [1] turned out to be 16.1 ± 2.54 µM; in the assay with A2780/mcp1, 35.6 ± 1.96 µM; in the assay on A2780/cp70, 18 ± 1.3 µM; in the assay on A2780, 64.5 ± 3.91 µM; in assay [2], 54.2 ± 10.8 µM. The “RF (Resistance Factor)” value in assay [1] (setting [4]) amounted to 0.30. Moreover, the “A2780/mcp1 RF (Resistance Factor)” value in the assay with A2780/mcp1 was found to be 0.55. Moreover, the “A2780/cp70 RF (Resistance Factor)” value with A2780/cp70 is given as 0.28.
Take `CC[n+]1ccccc1/C=C1\Sc2oc3ccccc3c2N1C.[I-]` [MMR307]: in assay [1] (A2 (MMR deficient) versus E1 (MMR proficient)), the “RF (Resistance Factor)” value is on record as 0.69. For the same molecule, the IC50 is 0.648 ± 0.085 µM in assay [1]; 0.716 ± 0.041 µM with A2780/mcp1; 0.932 ± 0.095 µM in the assay on A2780/cp70; 0.752 ± 0.073 µM with A2780; 0.937 ± 0.066 µM in assay [3]. Besides, in the assay with A2780/mcp1, the “A2780/mcp1 RF (Resistance Factor)” value was 0.95. The “A2780/cp70 RF (Resistance Factor)” value with A2780/cp70 stood at 1.24.
Take `CC[n+]1c(/C=C2\Sc3oc4ccccc4c3N2C)ccc2ccccc21.[I-]` [MMR211]: the IC50 in assay [1] amounted to 0.027 ± 0.003 µM; in the assay with A2780/mcp1, 0.038 ± 0.006 µM; in the assay on A2780/cp70, 0.04 ± 0.004 µM; in the assay with A2780, 0.069 ± 0.007 µM; in assay [2], 0.144 ± 0.009 µM. Besides, the “RF (Resistance Factor)” value in assay [1] (setting [4]) turned out to be 0.19. Moreover, the “A2780/mcp1 RF (Resistance Factor)” value in the assay with A2780/mcp1 was 0.55. The “A2780/cp70 RF (Resistance Factor)” value in the assay with A2780/cp70 is reported as 0.58.
In the case of `CC[n+]1c(/C=C2\SC=CN2C)ccc2ccccc21.[I-]` [MMR212], the IC50 in assay [1] came out at 0.681 ± 0.076 µM; in the assay with A2780/mcp1 it was 0.481 ± 0.048 µM; in the assay on A2780/cp70 it was 0.435 ± 0.022 µM; in the assay with A2780, 1.67 ± 0.37 µM; in assay [2], 4.1 ± 0.45 µM. The “RF (Resistance Factor)” value in assay [1] (setting [4]) is 0.17. Also, the “A2780/mcp1 RF (Resistance Factor)” value in the assay with A2780/mcp1 is 0.29. The “A2780/cp70 RF (Resistance Factor)” value in the assay with A2780/cp70 is listed as 0.26.
Regarding `CC[n+]1c(/C=C2\SC=C(C)N2C)ccc2ccccc21.[I-]` [MMR213], the IC50 came out at 0.53 ± 0.018 µM in assay [1]; 0.358 ± 0.103 µM in the assay on A2780/mcp1; 0.325 ± 0.044 µM with A2780/cp70; 1.23 ± 0.051 µM in the assay with A2780; 2.55 ± 0.18 µM in assay [2]. Further, the “RF (Resistance Factor)” value in assay [1] (setting [4]) was 0.21. The “A2780/mcp1 RF (Resistance Factor)” value in the assay with A2780/mcp1 came out at 0.29. Moreover, the “A2780/cp70 RF (Resistance Factor)” value in the assay on A2780/cp70 was 0.26.
With `CC[n+]1ccccc1/C=C1\SC=CN1C.[I-]` [MMR302], the IC50 in assay [1] is 4.15 ± 0.8 µM; in the assay with A2780/mcp1 it was 12.9 ± 1 µM; in the assay with A2780/cp70, 7.1 ± 0.37 µM; with A2780, 13.6 ± 1.55 µM; in assay [2] it was 2.83 ± 0.46 µM. The “RF (Resistance Factor)” value in assay [1] (setting [4]) was 1.5. Further, the “A2780/mcp1 RF (Resistance Factor)” value with A2780/mcp1 was determined as 0.95. In addition, the “A2780/cp70 RF (Resistance Factor)” value with A2780/cp70 is listed as 0.52.
